Experimental findings from PubChem BioAssay AID1745844 (Carcinogenic Potency Database (CPDB), 2022) are described below.

The source made the active and inactive calls. How the calls were made is not given here.

This data set has as its system rodent lifetime carcinogenesis bioassay, tumor incidence TD50. Put plainly: chronic cancer bioassays in animals – CPDB, compiled studies (AID 1745844).
Where [1] appears, read: rat, strain Charles River CD (Sprague-Dawley), females, in feed, site: liver, lesion: hepatocellular adenoma, dosed 104 weeks, study length 104 weeks.
Where [2] appears, read: rat, strain Charles River CD (Sprague-Dawley), males, in feed, site: liver, lesion: hepatocellular adenoma, dosed 104 weeks, study length 104 weeks.

The term TD50 denotes the dose at which the toxic effect under study appears in half of the subjects.

On to `O=P(OC(CCl)CCl)(OC(CCl)CCl)OC(CCl)CCl`, for which the TD50 is, setting by setting: (rat, strain Charles River CD (Sprague-Dawley), females, in feed, site: adrenal gland, lesion: cortical adenoma, dosed 104 weeks, study length 104 weeks) 192 mg/kg/day; (rat, strain Charles River CD (Sprague-Dawley), females, in feed, site: kidney, lesion: cortical adenoma, dosed 104 weeks, study length 104 weeks) 68.6 mg/kg/day; under setting [1], 324 mg/kg/day; (rat, strain Charles River CD (Sprague-Dawley), females, in feed, site: liver, lesion: hepatocellular carcinoma, dosed 104 weeks, study length 104 weeks) 721 mg/kg/day; (rat, strain Charles River CD (Sprague-Dawley), females, in feed, site: liver, lesion: several types, types named in the paper, dosed 104 weeks, study length 104 weeks) 206 mg/kg/day; (rat, strain Charles River CD (Sprague-Dawley), males, in feed, site: kidney, lesion: cortical adenoma, dosed 104 weeks, study length 104 weeks) 53.1 mg/kg/day. Also, the TD50 was 252 mg/kg/day under setting [2]; 390 mg/kg/day (rat, strain Charles River CD (Sprague-Dawley), males, in feed, site: liver, lesion: hepatocellular carcinoma, dosed 104 weeks, study length 104 weeks); 144 mg/kg/day (rat, strain Charles River CD (Sprague-Dawley), males, in feed, site: liver, lesion: several types, types named in the paper, dosed 104 weeks, study length 104 weeks); 35 mg/kg/day (rat, strain Charles River CD (Sprague-Dawley), males, in feed, site: testis, lesion: interstitial-cell tumor, dosed 104 weeks, study length 104 weeks).
On to `Cc1cc(OC(=O)N(C)C)n(C(C)C)n1`, for which the TD50 is 0.023 mg/kg/day (inactive) (mouse, strain B6AKF1, females, oral dosing, site: any site (literature study), lesion: several types, types named in the paper, dosed 76 weeks, study length 76 weeks); 0.0124 mg/kg/day (inactive) (mouse, strain B6AKF1, males, oral dosing, site: any site (literature study), lesion: several types, types named in the paper, dosed 76 weeks, study length 76 weeks); 0.0419 mg/kg/day (inactive) (mouse, strain B6AKF1, males, oral dosing, site: liver, lesion: hepatoma, dosed 76 weeks, study length 76 weeks); 0.0147 mg/kg/day (inactive) (mouse, strain B6AKF1, males, oral dosing, site: lung, lesion: adenoma, dosed 76 weeks, study length 76 weeks); 0.0413 mg/kg/day (inactive) (mouse, strain B6C3F1, males, oral dosing, site: any site (literature study), lesion: several types, types named in the paper, dosed 76 weeks, study length 76 weeks); 0.0156 mg/kg/day (inactive) (mouse, strain B6C3F1, males, oral dosing, site: lung, lesion: adenoma, dosed 76 weeks, study length 76 weeks). For the same compound, the carcinogen call was “negative (inactive)” (mouse, strain B6AKF1, females, oral dosing, site: liver, lesion: hepatoma, dosed 76 weeks, study length 76 weeks); “negative (inactive)” (mouse, strain B6AKF1, females, oral dosing, site: lung, lesion: several types, types named in the paper, dosed 76 weeks, study length 76 weeks); “negative (inactive)” (mouse, strain B6C3F1, females, oral dosing, site: any site (literature study), lesion: several types, types named in the paper, dosed 76 weeks, study length 76 weeks); “negative (inactive)” (mouse, strain B6C3F1, females, oral dosing, site: liver, lesion: hepatoma, dosed 76 weeks, study length 76 weeks); “negative (inactive)” (mouse, strain B6C3F1, females, oral dosing, site: lung, lesion: adenoma, dosed 76 weeks, study length 76 weeks); “negative (inactive)” (mouse, strain B6C3F1, males, oral dosing, site: liver, lesion: hepatoma, dosed 76 weeks, study length 76 weeks).
`COC(=O)[C@H]1[C@H]2C[C@@H]3c4[nH]c5cc(OC)ccc5c4CCN3C[C@H]2C[C@@H](OC(=O)c2cc(OC)c(OC)c(OC)c2)[C@@H]1OC`: the TD50 is, setting by setting: (mouse, strain B6C3F1, females, in feed, site: any site (literature study), lesion: several types, types named in the paper, dosed 103 weeks, study length 104 weeks) 6.42 mg/kg/day; (mouse, strain B6C3F1, females, in feed, site: lung, lesion: alveolar/bronchiolar adenoma + alveolar/bronchiolar carcinoma, dosed 103 weeks, study length 104 weeks) 54.5 mg/kg/day; (mouse, strain B6C3F1, females, in feed, site: mammary gland, lesion: all tumors, dosed 103 weeks, study length 104 weeks) 3.58 mg/kg/day; (mouse, strain B6C3F1, males, in feed, site: liver, lesion: hepatocellular adenoma + hepatocellular carcinoma + neoplastic nodule, dosed 103 weeks, study length 104 weeks) 5.46 mg/kg/day; (mouse, strain B6C3F1, males, in feed, site: seminal vesicle, lesion: undifferentiated carcinoma, dosed 103 weeks, study length 104 weeks) 8.39 mg/kg/day; (mouse, strain C3H (MTV+), females, in feed, site: mammary gland, lesion: adenocarcinoma, dosed 104 weeks, study length 104 weeks) 0.0342 mg/kg/day. Besides, the TD50 was 0.727 mg/kg/day (inactive) (rat, strain Fischer 344, females, in feed, site: any site (literature study), lesion: several types, types named in the paper, dosed 103 weeks, study length 104 weeks); 0.306 mg/kg/day (rat, strain Fischer 344, males, in feed, site: adrenal gland, lesion: pheochromocytoma + pheochromocytoma, malignant, dosed 103 weeks, study length 104 weeks); 6.77 mg/kg/day (rat, strain Fischer 344, males, in feed, site: liver, lesion: hepatocellular adenoma + hepatocellular carcinoma + neoplastic nodule, dosed 103 weeks, study length 104 weeks); 38.3 mg/kg/day (inactive) (rat, strain Wistar, males, in feed, site: pituitary gland, lesion: adenoma, dosed 75 weeks, study length 75 weeks). For the same compound, the carcinogen call (rat, strain Wistar, females, in feed, site: mammary gland, lesion: fibroadenoma, dosed 75 weeks, study length 75 weeks) was “negative (inactive)” and the carcinogen call (rat, strain Wistar, females, in feed, site: pituitary gland, lesion: several types, types named in the paper, dosed 75 weeks, study length 75 weeks) was “negative (inactive)”.
Consider `O=C(Nc1cccc2c(=O)cc(-c3nn[nH]n3)oc12)c1ccc(OCCCCc2ccccc2)cc1`, for which the carcinogen call is, setting by setting: (rat, strain Jcl:SD, females, by gavage, site: liver, lesion: one or several types, types not named, dosed 52 weeks, study length 52 weeks) “negative (inactive)”; (rat, strain Jcl:SD, females, by gavage, site: liver, lesion: one or several types, types not named, dosed 52 weeks, study length 56 weeks) “negative (inactive)”; (rat, strain Jcl:SD, males, by gavage, site: liver, lesion: neoplastic nodule, dosed 52 weeks, study length 56 weeks) “negative (inactive)”; (rat, strain Jcl:SD, males, by gavage, site: liver, lesion: one or several types, types not named, dosed 52 weeks, study length 52 weeks) “negative (inactive)”.
For the compound `O=C(O)CCCC/C=C(\c1ccccc1)c1cccnc1`, the carcinogen call is “negative (inactive)” (mouse, strain Charles River CD1, females, in feed, site: any site (literature study), lesion: several types, types named in the paper, dosed 104 weeks, study length 104 weeks); “negative (inactive)” (mouse, strain Charles River CD1, females, in feed, site: lung, lesion: alveolar/bronchiolar adenoma, dosed 104 weeks, study length 104 weeks); “negative (inactive)” (mouse, strain Charles River CD1, females, in feed, site: lung, lesion: alveolar/bronchiolar carcinoma, dosed 104 weeks, study length 104 weeks); “negative (inactive)” (mouse, strain Charles River CD1, males, in feed, site: lung, lesion: alveolar/bronchiolar carcinoma, dosed 104 weeks, study length 104 weeks); “negative (inactive)” under setting [1]; “negative (inactive)” under setting [2]. For the same compound, the TD50 reads like this: (mouse, strain Charles River CD1, females, in feed, site: liver, lesion: hepatocellular adenoma, dosed 104 weeks, study length 104 weeks) 4930 mg/kg/day (inactive); (mouse, strain Charles River CD1, males, in feed, site: any site (literature study), lesion: several types, types named in the paper, dosed 104 weeks, study length 104 weeks) 1090 mg/kg/day (inactive); (mouse, strain Charles River CD1, males, in feed, site: liver, lesion: hepatocellular adenoma, dosed 104 weeks, study length 104 weeks) 2050 mg/kg/day (inactive); (mouse, strain Charles River CD1, males, in feed, site: liver, lesion: hepatocellular carcinoma, dosed 104 weeks, study length 104 weeks) 10200 mg/kg/day (inactive); (mouse, strain Charles River CD1, males, in feed, site: lung, lesion: alveolar/bronchiolar adenoma, dosed 104 weeks, study length 104 weeks) 1220 mg/kg/day (inactive).
Consider `O=S(=O)(O)c1ccc2c(N=Nc3ccc(S(=O)(=O)O)c4ccccc34)c(O)c(S(=O)(=O)O)cc2c1`, for which the TD50 (rat, strain Mongrel, both sexes, in feed, site: any site (literature study), lesion: several types, types named in the paper, dosed 108 weeks, study length 108 weeks) is 632 mg/kg/day; the TD50 (rat, strain Non-inbred, both sexes, in feed, site: any site (literature study), lesion: several types, types named in the paper, dosed 143 weeks, study length 143 weeks) was 3320 mg/kg/day; the TD50 (rat, strain Non-inbred, both sexes, in feed, site: liver, lesion: hepatoma, dosed 143 weeks, study length 143 weeks) worked out at 49500 mg/kg/day; the TD50 (rat, strain Not specified, females, in feed, site: any site (literature study), lesion: several types, types named in the paper, dosed 64 weeks, study length 64 weeks) was 1640 mg/kg/day (inactive); the TD50 (rat, strain Wistar, both sexes, in feed, site: abdomen, lesion: malignant lymphoma, dosed 91 weeks, study length 91 weeks) is 6130 mg/kg/day. Also, the carcinogen call by setting is: (rat, strain Not specified, females, in feed, site: liver, lesion: one or several types, types not named, dosed 64 weeks, study length 64 weeks) “negative (inactive)”; (rat, strain Not specified, males, in feed, site: any site (literature study), lesion: several types, types named in the paper, dosed 64 weeks, study length 64 weeks) “negative (inactive)”; (rat, strain Not specified, males, in feed, site: liver, lesion: one or several types, types not named, dosed 64 weeks, study length 64 weeks) “negative (inactive)”; (rat, strain Sprague-Dawley, females, in feed, site: any site (literature study), lesion: one or several types, types not named, dosed 52 weeks, study length 52 weeks) “negative (inactive)”; (rat, strain Sprague-Dawley, females, in feed, site: liver, lesion: one or several types, types not named, dosed 52 weeks, study length 52 weeks) “negative (inactive)”.
For `[K+]`, the TD50 runs as follows: (rat, strain F344/DuCrj, females, in drinking water, site: submandibular salivary gland, lesion: squamous-cell carcinoma, dosed 104 weeks, study length 104 weeks) 560 mg/kg/day; (rat, strain F344/DuCrj, females, in drinking water, site: uterus, lesion: endometrial stromal polyp, dosed 104 weeks, study length 104 weeks) 204 mg/kg/day (inactive); (rat, strain F344/DuCrj, males, in drinking water, site: submandibular salivary gland, lesion: squamous-cell carcinoma, dosed 104 weeks, study length 104 weeks) 363 mg/kg/day.
As for `CC(=O)NN`, the TD50 was 18.8 mg/kg/day (mouse, strain Swiss, females, by gavage, site: lung, lesion: several types, types named in the paper, dosed 34 weeks, study length 95 weeks); 53.8 mg/kg/day (mouse, strain Swiss, females, by gavage, site: lung, lesion: several types, types named in the paper, dosed 95 weeks, study length 95 weeks); 4.48 mg/kg/day (mouse, strain Swiss, males, by gavage, site: lung, lesion: several types, types named in the paper, dosed 34 weeks, study length 95 weeks); 35.6 mg/kg/day (mouse, strain Swiss, males, by gavage, site: lung, lesion: several types, types named in the paper, dosed 95 weeks, study length 95 weeks).
Turning to `CC=NO`, the TD50 (rat, strain Fischer 344, males, in drinking water, site: liver, lesion: hyperplastic nodule, dosed 110 weeks, study length 129 weeks) amounted to 445 mg/kg/day.
With `C/C=C(\C)C(=O)O[C@@H]1CCN2CC=C(COC(=O)[C@](O)(C(C)C)[C@H](C)O)[C@H]12`, the TD50 (rat, strain ACI, males, i.p., site: any site (literature study), lesion: several types, types named in the paper, dosed 56 weeks, study length 92 weeks) was found to be 4.5 mg/kg/day and the TD50 (rat, strain ACI, males, i.p., site: liver, lesion: several types, types named in the paper, dosed 56 weeks, study length 92 weeks) is 1.91 mg/kg/day.
